Test results from US20220389500A1, “PURIFYING AND POLYMERIZING 3'-BLOCKED NUCLEOTIDES” (ILLUMINA, INC., priority 2021, published 2022).

Experiments:
[1] = Concentrations of byproducts diphosphate and tetraphosphate in nucleotide solutions vs HPBCD, magnesium ions and nucleotides (FIG. 15); assay type: physicochemical; conditions: solutions with buffer, polymerase and oligonucleotide template
Text: A precipitate was formed and a color change of solution was observed when nucleotides (3′-blocked and 3′-OH), which were coupled to different fluorescent dyes, were mixed with polishing polymerase, a template, magnesium ions (from magnesium acetate), and a buffer. The change in color was interpreted as the solution having a reduced concentration of fluorescent dyes, and the precipitate was interpreted as being an aggregation of the nucleotides coupled to the fluorescent dyes. […] The plots described below with reference to FIGS. 12-15 were obtained by using the measured normalized intensities, together with the corresponding concentrations of different solution components, in a model that interpolated the behavior of the solution system for additional concentrations. […]
FIG. 15 includes plots of the concentrations of different byproducts as a function of concentrations of the modified β-cyclodextrin HPBCD, of magnesium ions, and of the fluorescently labeled nucleotides FFA-1, FFA-3, and FFC-1. More specifically, the respective concentrations of diphosphate and tetraphosphate in the solutions were measured and used in the above-noted models. […]

[2] = Observation of precipitate and color change of dye-coupled nucleotide solutions with polishing polymerase, template, magnesium ions and buffer; assay type: physicochemical; conditions: HPBCD added to dye-coupled nucleotides, magnesium ions (magnesium acetate) and buffer
Text: A precipitate was formed and a color change of solution was observed when nucleotides (3′-blocked and 3′-OH), which were coupled to different fluorescent dyes, were mixed with polishing polymerase, a template, magnesium ions (from magnesium acetate), and a buffer. The change in color was interpreted as the solution having a reduced concentration of fluorescent dyes, and the precipitate was interpreted as being an aggregation of the nucleotides coupled to the fluorescent dyes. […] From this it was inferred that modified α-cyclodextrins (such as (2-hydroxypropyl)-α-cyclodextrin), other modified β-cyclodextrins (such as […], HEBCD), or modified γ-cyclodextrins (such as (2-hydroxypropyl)-γ-cyclodextrin) may promote solubility of the nucleotides and/or of the fluorescent dyes. A series of solutions were prepared in which the concentration of magnesium ions was varied between 0 and 6.3 mM, the concentration of HPBCD was varied between 0% and 10% (w/v), and the concentration of nucleotides including fluorescent dyes was varied between 0.5 and 1.5 mM. […] The plots described below with reference to FIGS. 12-15 were obtained by using the measured normalized intensities, together with the corresponding concentrations of different solution components, in a model that interpolated the behavior of the solution system for additional concentrations. […]

In the case of `CC(O)COC[C@H]1O[C@@H]2O[C@H]3[C@H](O)[C@@H](O)[C@@H](O[C@H]4[C@H](O)[C@@H](O)[C@@H](O[C@H]5[C@H](O)[C@@H](O)[C@@H](O[C@H]6[C@H](O)[C@@H](O)[C@@H](O[C@H]7[C@H](O)[C@@H](O)[C@@H](O[C@H]8[C@H](O)[C@@H](O)[C@@H](O[C@H]1[C@H](O)[C@H]2O)O[C@@H]8COCC(C)O)O[C@@H]7COCC(C)O)O[C@@H]6COCC(C)O)O[C@@H]5COCC(C)O)O[C@@H]4COCC(C)O)O[C@@H]3COCC(C)O` (stereo partly drawn) [HPBCD, (2-hydroxypropyl)-β-cyclodextrin], the “effect on formation of byproducts (diphosphate, tetraphosphate)” value [1] is reported as “suppressed the formation of different byproducts” and the “precipitate formation and color change of solution” value [2] is reported as “did not form a precipitate or change color”.
